Experimental data taken from patent US7745450B2, “Pyrazolo[4,3-d]pyrimidines, processes for their preparation and methods for therapy” (Institute of Experimental Botany, priority 2002, dated 2010).

Test system: Cytokinin-dependent tobacco callus Nicotiana tabacum L. cv. Wisconsins 38
Assay: Tobacco callus bioassay for cytotoxicity (herbicidal activity)
Type: cell-based
Outline: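 Compounds were prepared in DMSO as a 10^−3 M stock in water. Growth inhibition was scored from fresh callus weight gain after four weeks, with five replicates and the test run at least twice.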

## 5-(3-aminopropylamino)-7-benzylamino-3-isopropylpyrazolo[4,3-d]pyrimidine [Compound 17]
  Inhibition of tobacco callus growth: inhibitory effect
